Data reported in patent US20230114674A1, “ISOINDOLINE DERIVATIVE, AND PHARMACEUTICAL COMPOSITION AND USE THEREOF” (KANGPU BIOPHARMACEUTICALS, LTD., priority 2020, published 2023).

Tests used:
MM.1S myeloma cells [1] = experiment: Cell proliferation inhibition test by MTS assay; assay type: cell-based; settings: Homo sapiens, MM1.S, 72 hours drug treatment, 15,000 cells/well, 96-well plate
Protocol: Experimental Method for Cell Proliferation Inhibition Test by MTS Assay:
Proliferating MM.1S myeloma cells (ATCC, Cat #CRL-2974) were resuspended in RPMI-640 medium (Gibco, Cat #A10491-01) and counted using an automated cell counter. The cell suspension was diluted to the needed density and 100 μl (15,000 cells) of the cell suspension was plated per well in a 96-well plate. The plate was cultured in a 37° C., 5% CO2 incubator for 24 hours. On the day of administration, each compound was formulated into 20 mM stock solution with DMSO (Sigma, Cat #D2650), diluted with a medium to the needed concentration, and then added to the corresponding wells for the cell proliferation inhibition test with a drug of 4-fold serial dilution with 10 points. The final concentration of DMSO was 0.5%. After drug addition, the 96-well plate was cultured in a 37° C., 5% CO2 incubator for 72 hours. Then, 20 μl of MTS (Promega, Cat #G3581) was added to each well and the plate was cultured for 2 hours in a 37° C., 5% CO2 incubator, and then the absorbance at 490 nm of each well was recorded using an Ensight instrument. The reading of the cells at Day 0 was used as a negative control and the reading of cells with 0.5% DMSO at Day-3 was used as a positive control. Cell proliferation inhibition curve was plotted using GraphPad Prism 5 software and the IC50 value was calculated. Experiment results can be seen in Table 1.

MM.1S myeloma cells [2] = experiment: Cell proliferation inhibition test by CTG (CellTiter-Glo) assay; assay type: cell-based; settings: Homo sapiens, MM1.S, 120 hours drug treatment, 4,000 cells/well, 384-well plate, read-out: MM.2S IC50
Protocol: Experimental Method for Cell Proliferation Inhibition Test by CTG Assay:
The proliferation inhibitory activity of the compounds in the MM.1S myeloma cell model was determined by CellTiter-Glo (CTG) Luminescent Cell Viability Assay (Promega). MM.1S cells (ATCC, Cat #CRL-2974) at exponential phase were resuspended in RPMI-1640 (Gibco, Cat #11875-093)+10% FBS+1% penicillin/streptomycin+2 mM Glutamax medium and counted using an automated cell counter (ViCellXR). According to the optimized cell plating density in the pre-experiments, 40 μl of cell suspension at a density of 100,000 cells/ml was plated in the corresponding wells of a 384-well plate (4,000 cells/well) to ensure that cells in the control group were at linear growth phase within the five-day experimental period. The plated 384-well plate was cultured in a 37° C., 5% CO2 incubator for 24 hours. On the day of administration, each compound was formulated into 10 mM stock solution with DMSO (Sigma, Cat #276855-1L) and the stock solution was further diluted with DMSO to 20 μM and 20 nM working solutions. Drug treatment of MM.1S cells started at a concentration of up to 100 nM and the drug was serial diluted 4-fold with 10 points, with three replicate wells. Nanoliter volumes of compound solutions were added to the corresponding wells of the 384-well plate according to the needed concentration in a non-contact spraying manner by an HPD300 microscale automated dispenser (Tecan). The final concentration of DMSO was 0.5%. After drug addition, the 384-well plate was cultured in a 37° C., 5% CO2 incubator for 120 hours. After five days of drug treatment, 25 μl of CTG reagent (Promega, Cat #G7573) was added to each well, and the plate was shaken on a plate shaker for 10 minutes to ensure that the cells were fully lysed, and then left to stand at room temperature for 10 minutes to ensure a sufficient reaction of CTG with the substrate and the generation of a stable luminescent signal. The signal is proportional to the amount of ATP in the cell lysate, i.e., the number of metabolically active cells. Chemiluminescence of the cells in the plate was detected by an EnSpire instrument. The reading of the cells at Day 0 was used as a control for cells at growth starting point and the reading of cells with 0.5% DMSO at Day 5 was used as a control for cells under growth. Cell proliferation inhibition curve was plotted using XLFit software and the IC50 value was calculated. Experiment results can be seen in Table 2.

| SMILES | IC50 (MM.1S myeloma cells [1]) [nM] | IC50 (MM.1S myeloma cells [2]) [nM] |
| --- | --- | --- |
| N#Cc1ccc(N2CCN(Cc3ccc(COc4cccc5c4CN([C@H]4CCC(=O)NC4=O)C5=O)c(Cl)c3)CC2)c(F)c1 [CM-1] | 0.102 |  |
| O=C1CC[C@H](N2Cc3c(OCc4ccc(CN5CCN(c6ccc([N+](=O)[O-])cc6F)CC5)cc4F)cccc3C2=O)C(=O)N1 [CM-2, (S)-3-(4-((2-fluoro-4-((4-(2-fluoro-4-nitrophenyl)piperazin-1-yl)methyl)benzyl)oxy)-1-oxoisoindolin-2-yl)piperidine-2,6-dione] | 0.0139 |  |
| N#Cc1ccc(N2CCN(Cc3ccc(COc4cccc5c4CN([C@H]4CCC(=O)NC4=O)C5=O)c(F)c3)CC2)c(F)c1 [CM-3, (S)-4-(4-(4-(((2-(2,6-dioxopiperidin-3-yl)-1-oxoisoindolin-4-yl)oxy)methyl)-3-fluorobenzyl)piperazin-1-yl)-3-fluorobenzonitrile] | 0.0064 |  |
| N#Cc1ccc(N2CCN(Cc3ccc(COc4cccc5c4CN([C@H]4CCC(=O)NC4=O)C5=O)cc3F)CC2)c(F)c1 [CM-4, (S)-4-(4-(4-(((2-(2,6-dioxopiperidin-3-yl)-1-oxoisoindolin-4-yl)oxy)methyl)-2-fluorobenzyl)piperazin-1-yl)-3-fluorobenzonitrile] | 0.0153 |  |
| N#Cc1ccc(N2CCN(Cc3ccc(COc4cccc5c4CN([C@H]4CCC(=O)NC4=O)C5=O)c(F)c3)CC2)cc1F [CM-5, (S)-4-(4-(4-(((2-(2,6-dioxopiperidin-3-yl)-1-oxoisoindolin-4-yl)oxy)methyl)-3-fluorobenzyl)piperazin-1-yl)-2-fluorobenzonitrile] | 0.0063 |  |
| N#Cc1ccc(N2CCN(Cc3ccc(COc4cccc5c4CN([C@H]4CCC(=O)NC4=O)C5=O)c(F)c3)CC2)cc1C(F)(F)F [CM-6, (S)-4-(4-(4-(((2-(2,6-dioxopiperidin-3-yl)-1-oxoisoindolin-4-yl)oxy)methyl)-3-fluorobenzyl)piperazin-1-yl)-2-(trifluoromethyl)benzonitrile] | 0.0409 |  |
| COc1cc(N2CCN(Cc3ccc(COc4cccc5c4CN([C@H]4CCC(=O)NC4=O)C5=O)c(F)c3)CC2)ccc1C#N [CM-7, (S)-4-(4-(4-(((2-(2,6-dioxopiperidin-3-yl)-1-oxoisoindolin-4-yl)oxy)methyl)-3-fluorobenzyl)piperazin-1-yl)-2-methoxybenzonitrile] | 0.0054 |  |
| N#Cc1ccc(N2CCN(Cc3ccc(COc4cccc5c4CN([C@H]4CCC(=O)NC4=O)C5=O)c(F)c3)CC2)c(C(F)(F)F)c1 [CM-8] | 0.0211 |  |
| N#Cc1ccc(N2CCN(Cc3ccc(COc4cccc5c4CN([C@H]4CCC(=O)NC4=O)C5=O)c(F)c3)CC2)c(Cl)c1 [CM-9] | 0.0136 |  |
| N#Cc1ccc(N2CCN(Cc3ccc(COc4cccc5c4CN([C@H]4CCC(=O)NC4=O)C5=O)c(F)c3)CC2)cc1 [CM-10] | 0.0105 |  |
| Cc1cc(N2CCN(Cc3ccc(COc4cccc5c4CN([C@H]4CCC(=O)NC4=O)C5=O)c(F)c3)CC2)ccc1C#N [CM-11] | 0.0091 |  |
| CCOc1cc(N2CCN(Cc3ccc(COc4cccc5c4CN([C@H]4CCC(=O)NC4=O)C5=O)c(F)c3)CC2)ccc1C#N [CM-12] | 0.0067 |  |
| N#Cc1ccc(N2CCN(Cc3ccc(COc4cccc5c4CN([C@H]4CCC(=O)NC4=O)C5=O)c(F)c3)CC2)cc1OCC1CC1 [CM-13] | 0.0271 |  |
| [2H]C([2H])([2H])Oc1cc(N2CCN(Cc3ccc(COc4cccc5c4CN([C@H]4CCC(=O)NC4=O)C5=O)c(F)c3)CC2)ccc1C#N [CM-15] | 0.0062 |  |
| O=C1CC[C@H](N2Cc3c(OCc4ccc(CN5CCN(c6ccc(C(F)(F)F)c(F)c6)CC5)cc4F)cccc3C2=O)C(=O)N1 [CM-16] | 0.189 |  |
| NC(=O)c1ccc(N2CCN(Cc3ccc(COc4cccc5c4CN([C@H]4CCC(=O)NC4=O)C5=O)c(F)c3)CC2)cc1F [CM-18, (S)-4-(4-(4-(((2-(2,6-dioxopiperidin-3-yl)-1-oxoisoindolin-4-yl)oxy)methyl)-3-fluorobenzyl)piperazin-1-yl)-2-fluorobenzamide] | 0.0188 |  |
| N#Cc1ccc(N2CCN(Cc3ccc(COc4cccc5c4CN([C@H]4CCC(=O)NC4=O)C5=O)cc3F)CC2)cc1F [CM-20] | 0.0132 |  |
| COc1cc(N2CCN(Cc3ccc(COc4cccc5c4CN([C@H]4CCC(=O)NC4=O)C5=O)cc3F)CC2)ccc1C#N [CM-21] | 0.0111 |  |
| NC(=O)c1ccc(N2CCN(Cc3ccc(COc4cccc5c4CN([C@H]4CCC(=O)NC4=O)C5=O)cc3F)CC2)c(F)c1 [CM-23] | 0.0581 |  |
| NC(=O)c1ccc(N2CCN(Cc3ccc(COc4cccc5c4CN([C@H]4CCC(=O)NC4=O)C5=O)c(F)c3)CC2)c(F)c1 [CM-24] | 0.0388 |  |

| SMILES | IC50 (MM.1S myeloma cells [1]) [nM] | IC50 (MM.1S myeloma cells [2]) [nM] |
| --- | --- | --- |
| N#Cc1ncc(N2CCN(Cc3ccc(COc4cccc5c4CN([C@H]4CCC(=O)NC4=O)C5=O)cc3F)CC2)cc1C(F)(F)F [CM-25] | 0.0291 |  |
| CCOc1nc(N2CCN(Cc3ccc(COc4cccc5c4CN([C@H]4CCC(=O)NC4=O)C5=O)cc3F)CC2)ccc1OC [CM-26] | 0.465 |  |
| COc1cc(C#N)ccc1N1CCN(Cc2ccc(COc3cccc4c3CN([C@H]3CCC(=O)NC3=O)C4=O)c(F)c2)CC1 [CM-27] | 0.134 |  |
| N#Cc1ccc(N2CCN(Cc3ccc(COc4cccc5c4CN([C@H]4CCC(=O)NC4=O)C5=O)c(F)c3)CC2)cn1 [CM-28] | 0.102 |  |
| N#Cc1ccc(N2CCN(Cc3ccc(COc4cccc5c4CN(C4CCC(=O)NC4=O)C5=O)c(F)c3)CC2)nc1 (stereo not drawn) [CM-29] | 0.201 |  |
| N#Cc1ccc(N2CCN(Cc3ccc(COc4cccc5c4CN([C@H]4CCC(=O)NC4=O)C5=O)c(F)c3)CC2)c(C#N)c1 [CM-30] | 0.109 |  |
| N#Cc1ccc(N2CCN(Cc3ccc(COc4cccc5c4CN([C@H]4CCC(=O)NC4=O)C5=O)c(F)c3)CC2)c(C(N)=O)c1 [CM-33] | 0.0781 |  |
| CNC(=O)c1cc(C#N)ccc1N1CCN(Cc2ccc(COc3cccc4c3CN([C@H]3CCC(=O)NC3=O)C4=O)c(F)c2)CC1 [CM-34] | 0.0766 |  |
| CCc1cc(C#N)ccc1N1CCN(Cc2ccc(COc3cccc4c3CN([C@H]3CCC(=O)NC3=O)C4=O)c(F)c2)CC1 [CM-35] | 0.0962 |  |
| CCOc1cc(C#N)ccc1N1CCN(Cc2ccc(COc3cccc4c3CN([C@H]3CCC(=O)NC3=O)C4=O)c(F)c2)CC1 [CM-36] | 0.148 |  |
| N#Cc1ccc(N2CCN(Cc3ccc(COc4cccc5c4CN([C@H]4CCC(=O)NC4=O)C5=O)c(F)c3)CC2)cc1C1CC1 [CM-37] | 0.119 |  |
| C=Cc1ccc(N2CCN(Cc3ccc(COc4cccc5c4CN([C@H]4CCC(=O)NC4=O)C5=O)c(F)c3)CC2)c(F)c1 [CM-38] | 1.21 |  |
| N#Cc1ccc(N2CCN(Cc3ccc(COc4cccc5c4CN([C@H]4CCC(=O)NC4=O)C5=O)c(F)c3)CC2)cc1Cl [CM-39] | 0.0631 |  |
| N#Cc1ccc(N2CCN(Cc3ccc(COc4cccc5c4CN([C@H]4CCC(=O)NC4=O)C5=O)c(F)c3)CC2)c(O)c1 [CM-40] | 0.378 |  |
| CCc1cc(N2CCN(Cc3ccc(COc4cccc5c4CN([C@H]4CCC(=O)NC4=O)C5=O)c(F)c3)CC2)ccc1C#N [CM-41] | 0.116 |  |
| C#Cc1ccc(N2CCN(Cc3ccc(COc4cccc5c4CN([C@H]4CCC(=O)NC4=O)C5=O)c(F)c3)CC2)c(F)c1 [CM-43] | 0.576 |  |
| CNC(=O)c1ccc(N2CCN(Cc3ccc(COc4cccc5c4CN([C@H]4CCC(=O)NC4=O)C5=O)cc3F)CC2)cc1F [CM-45] |  | 0.0938 |
| CCOc1cc(N2CCN(Cc3ccc(COc4cccc5c4CN([C@H]4CCC(=O)NC4=O)C5=O)cc3F)CC2)ccc1C#N [CM-46] |  | 0.0687 |
| N#Cc1ccc(N2CCN(Cc3ccc(COc4cccc5c4CN([C@H]4CCC(=O)NC4=O)C5=O)c(F)c3)CC2)c(F)c1C(F)(F)F [CM-47] |  | 0.135 |
